The test system of data set [1] is IL-6 level, LPS-treated BV-2 cells. The data set is described as follows: IL-6 level in LPS-treated BV-2 cells (LANCE Ultra TR-FRET). Type of data set: cell-based, mouse. As to conditions: LPS 100 ng/mL, 18 h. The text has this:
Lipopolysaccharide (LPS) is a potent pro-inflammatory stimulus triggering the extensive production of inflammatory mediators, including cytokines and chemokines. Consequently, it finds widespread application in inducing in vitro and in vivo models of sepsis and inflammation, including neuroinflammation. In this study, we employed LPS in the BV-2 cell line and assessed the impact of the selected compounds on the levels of NO, IL-6, and TNF-α production (Figure 4B–D). […] Moreover, all compounds surpassed the reference compound in these assays.
The cells were pretreated with tested compounds for 1 h. After this time, lipopolysaccharide (100 ng/mL) was added and the resulting mixture was incubated for 18 h. Next, the culture supernatant was acquired to measure the levels of nitric oxide (NO), IL-6, and TNF-α, according to the following procedures.
IL-6 and TNF-α levels in the culture supernatants were measured using the LANCE Ultra TR-FRET Detection Kit (Perkin Elmer, Waltham, MA, USA), according to the manufacturer’s protocol. Each cytokine detection was performed separately in a 384-well plate, following the kit instructions. Samples were added at 15 μL/well to a 384-well plate and then premixed antibody solution was added at 5 μL/well. After 1 h of incubation of IL-6 and 3 h of incubation of TNF-α in the dark at 22 °C, the plates were read using an EnVision plate reader (Perkin Elmer) with the excitation wavelength at 320 nm, the donor emission were read at 615 nm, and the acceptor emission were read at 660 nm. The values of IL-6 and TNF-α levels were calculated as a percentage of control (maximal response of LPS).
Figure 4 (A) Results of the okadaic-acid-induced hyperphosphorylation assay. The HT-22 cells were pretreated for 3 h with okadaic acid (400 nM), and the tested compounds, at the increasing non-cytotoxic concentrations, were determined using a viability assay (or with the vehicle, 10 µM DMSO in the control sample). Cell viability was measured using the PrestoBlue^TM cell viability reagent. (B–D) Results of anti-inflammatory assays in LPS-treated (100 ng/mL) BV-2 cell line. The final compounds and references were tested at increasing non-cytotoxic concentrations and with DMSO as a control sample. NO release was measured using a fluorometric assay with 2,3-diaminonaphthalene (DAN). The IL-6 and TNF-α levels were measured using an LANCE Ultra TR-FRET Detection Kit (Perkin Elmer). Statistical analysis was performed using GraphPad Prism 9.0.0. All values are expressed as mean with SD. Differences among groups were evaluated using one-way ANOVA followed by post hoc analysis (Dunnett’s multiple comparison tests) and were considered statistically significant if p < 0.05 (* p < 0.05, ** p < 0.01, and **** p < 0.0001).
On the technique in general: TR-FRET usually uses a lanthanide donor and a delayed reading to cut background.

Data set [2] can be described thus: Thermodynamic solubility assay in DPBS. The note with it: for solubility at 24 h: Dulbecco's phosphate-buffered saline (DPBS), 20 °C, aqueous buffer, thermodynamic from solid, thermodynamic, 24 h shaking at room temperature, read-out: Solubility (µg/mL) ± SD. It counts as physicochemical. Here is the method: To address potential challenges related to poorly soluble compounds, such as variable and limited intestinal absorption, we conducted thermodynamic solubility studies.
Quantitative HPLC analyses were performed similarly to the chemical stability studies. A standard solution of the tested compound was prepared in methanol at a concentration of 2 mg/mL. The standard solution was diluted with methanol to obtain five solutions with different concentrations ranging from 0.06 to 0.1 mg/mL or 0.035 to 0.05 mg/mL (for II), and they were quantified via HPLC. The calibration curve was plotted using AUC against the concentration (mg/mL). Next, 2 mg of the tested compound was dissolved in 1 mL of Dulbecco’s phosphate-buffered saline (DPBS), and the mixture was constantly agitated at 20 °C for 24 h in a thermoshaker. After that time, the mixture was filtered through a cellulose acetate syringe filter (pore size 0.22 μm) and the solution was analyzed via HPLC. The solubility of the tested compounds was calculated using the calibration curves (mg/mL).

A short description of data set [3]: Metabolic stability in mouse liver microsomes. It counts as in vitro ADME. As to conditions: % compound remaining after 15 min with mouse liver microsomes, NADPH.
Description: Metabolic stability was assessed using pooled microsomes from the liver of male mice (CD-1) from Sigma-Aldrich (St. Louis, MO, USA). Incubations were carried out in 96-well plates. Potassium phosphate buffer (100 mM, pH 7.4, + 2 mM MgCl2) containing murine liver microsomes (0.5 mg protein/mL) was pre-incubated with test compounds or positive control (1 µM, 0.2% DMSO) at 37 °C for 15 min (N = 2). Reactions were initiated by adding NADPH (1 mM). The reactions were also incubated without NADPH to exclude non-NADPH metabolism. The reactions were terminated after 15 min via the addition of an acetonitrile quenching solution containing an internal standard (labetalol, 0.5 mM). The plates were centrifuged at 4000 rpm for 30 min at 4 °C, and an aliquot of supernatant was diluted with water before analysis via UPLC-MS/MS. The UPLC-MS/MS system consisted of a Waters Acquity Premier (Waters Corporation, Milford, MA, USA) coupled with a Waters Xevo TQ-S Cronos mass spectrometer (electrospray ionization mode ESI). […] Chromatograms were recorded using a Waters eλ PDA detector. Spectra were analyzed in the 200–700 nm range with 1.2 nm resolution and a sampling rate of 20 points/s. […]
Data set [4] is described as follows: Chemical stability assay in phosphate buffer pH 7.4. Type of data set: physicochemical. As to conditions: phosphate buffer pH 7.4, 37 °C, 120 min. The procedure:
Before conducting the metabolic stability studies, we assessed the chemical stability of 62 and II in phosphate buffer at pH 7.4.
Quantitative HPLC analyses were acquired using Waters Alliance e2695 separations module (Waters, Milford, CT, USA), containing 2998 photodiode array (PDA), a detector (Waters, Milford, CT, USA), and a SpeedROD RP-18e 50–4.6 mm column (Merck, KGaA, Darmstadt, Germany). The temperature of the column was preserved at 30 °C. The experiment was conducted under the following conditions: a flow rate of 5 mL/min, eluent A (water/0.1% HCOOH), eluent B (MeCN/0.1% HCOOH), and a gradient starting from 0% of B to 100% of B for 3 min. Each sample was injected at a volume of 10 μL in triplicate, and the spectra were analyzed at the maximum wavelength. Potassium phosphate buffer (100 mM, pH 7.4, + 2 mM MgCl2) was incubated with the test compounds (1 µM, 0.2% DMSO) at 37 °C for 120 min (N = 2).

Converted amounts (≈) assume the structure as drawn.

In the case of `NC(=O)Nc1cc(-c2ccnc(NC(=O)C3CC3)c2)sc1C(N)=O` [Compound 49, 5-(2-(Cyclopropanecarboxamido)pyridin-4-yl)-3-ureidothiophene-2-carboxamide], the “IL-6 level (in words)” value was “reduced IL-6 levels” in data set [1] (1 µM) and “significantly decreased” in data set [1] (10 µM).

On to `NC(=O)Nc1cc(-c2ccnc(NC(=O)C3CCC3)c2)sc1C(N)=O` [Compound 50, 5-(2-(Cyclobutanecarboxamido)pyridin-4-yl)-3-ureidothiophene-2-carboxamide], for which the “IL-6 level (in words)” value in data set [1] (10 µM) was “significantly decreased”.

On to `O=C1NC2(CCOC2)Nc2cc(-c3ccnc(NC(=O)C4CC4)c3)sc21` (centres unmarked) [Compound 62, N-(4-(4′-Oxo-3′,4,4′,5-tetrahydro-1′H,2H-spiro[furan-3,2′-thieno [3,2-d]pyrimidin]-6′-yl)pyridin-2-yl)cyclopropanecarboxamide], for which, in data set [2], the “increase in solubility compared to reference compound II” value was “sixfold” and the solubility at 24 h turned out to be 31 ± 1 µg/mL (≈ 83.7 µM). Also, the “MLM Stability (%) ± SD” value in data set [3] is on record as 100 ± 1%. Also, the “chemical stability, % compound remaining relative to 0 min” value in data set [4] was found to be 100%. In data set [1] (10 µM), the “IL-6 level (in words)” value is “significantly decreased”.

With `COc1nc(-c2ccnc(NC(=O)C3CC3)c2)sc1C(N)=O` [II, reference compound], the solubility at 24 h in data set [2] was determined as 5 ± 1 µg/mL (≈ 15.7 µM). Also, the “MLM Stability (%) ± SD” value in data set [3] worked out at 100 ± 0%. Moreover, the “chemical stability, % compound remaining relative to 0 min” value in data set [4] amounted to 100%.
